Read-outs that look alike come from different tables or passages of the source.
Experiments:
[1] = tested on: OXPHOS gene expression; assay type: cell-based, mouse; settings: for GE-HTS (composite Z-score): normalized score vs mock-treated (DMSO) wells
[2] = tested on: cellular dehydrogenase activity; settings: for MTT (composite Z-score): normalized score vs mock-treated (DMSO) wells
[3] = tested on: cytochrome c; assay type: cell-based, mouse; settings: for cyt c (composite Z-score): normalized score vs mock-treated (DMSO) wells
[4] = tested on: mtOXPHOS transcripts; assay type: cell-based, mouse; settings: for mitoOX (composite Z-score): normalized score vs mock-treated (DMSO) wells
[5] = tested on: reactive oxygen species; assay type: cell-based, mouse; settings: for ROS (composite Z-score): normalized score vs mock-treated (DMSO) wells
[6] = tested on: nuOXPHOS transcripts; assay type: cell-based, mouse; settings: for nucOX (composite Z-score): normalized score vs mock-treated (DMSO) wells
[7] = tested on: C2C12 myotubes; settings: for Viability (composite Z-score): normalized score vs mock-treated (DMSO) wells
[8] = tested on: mitochondrial membrane potential; assay type: cell-based, mouse; settings: for ΔΨm (composite Z-score): normalized score vs mock-treated (DMSO) wells
[9] = composite Z-score vs DMSO, Conc 20 μM
[10] = composite Z-score vs mock-treated (DMSO) wells, Conc 20 μM
[11] = normalized composite Z-score vs mock-treated (DMSO) wells, Conc 20 μM
[12] = composite Z-score vs DMSO wells, Conc 20 μM
[13] = 20 μM, composite Z-score vs DMSO

Sequence of cytochrome c (P62897 whole entry): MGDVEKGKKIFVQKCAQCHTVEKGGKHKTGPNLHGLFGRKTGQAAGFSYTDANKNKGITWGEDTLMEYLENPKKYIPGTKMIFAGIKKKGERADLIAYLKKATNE

## C[C@@H]1O[C@@H](O[C@H]2C[C@@H](O)[C@]3(CO)[C@H]4[C@H](O)C[C@]5(C)[C@@H](C6=CC(=O)OC6)CC[C@]5(O)[C@@H]4CC[C@]3(O)C2)[C@H](O)[C@H](O)[C@H]1O [ouabain]
[1]; [9]
  GE-HTS: −1.278
[2]; [9]
  MTT: −2.101
[3]; [9]
  cyt c: 0.262
[4]; [9]
  mitoOX: −1.547
[5]; [9]
  ROS: 0.466
[6]; [9]
  nucOX: −0.986
[7]; [9]
  Viability: −0.631
[8]; [9]
  ΔΨm: −1.093

## CC(=O)O[C@@H]1CC[C@@]2(C)C(C[C@@H](OC(C)=O)[C@@]3(C)C4=CC(=O)O[C@@H](c5ccoc5)[C@]4(C)CCC23)C1(C)C (stereo partly drawn) [3alpha-acetoxydihydrodeoxygedunin]
[1]; [10]
  GE-HTS: −0.987
[2]; [10]
  MTT: −1.653
[3]; [10]
  cyt c: 0.179
[4]; [10]
  mitoOX: −0.584
[5]; [10]
  ROS: 2.371
[6]; [10]
  nucOX: −1.123
[7]; [10]
  Viability: 0.781
[8]; [10]
  ΔΨm: 1.157

## CC1(C)C(=O)C=C[C@]2(C)[C@H]3CC[C@@]4(C)[C@H](c5ccoc5)OC(=O)[C@H]5O[C@]54[C@]3(C)C(=O)C[C@@H]12 [deacetoxy-7-oxogedunin]
[1]; [10]
  GE-HTS: −0.407
[2]; [10]
  MTT: −0.029
[3]; [10]
  cyt c: 0.047
[4]; [10]
  mitoOX: −0.632
[5]; [10]
  ROS: −0.301
[6]; [10]
  nucOX: −0.287
[7]; [10]
  Viability: 0.089
[8]; [10]
  ΔΨm: 1.322

## COc1ccc(/C=C/c2cc(O)cc(O)c2)cc1 [resveratrol 4′-methyl ether]
[1]; [10]
  GE-HTS: −0.005
[2]; [10]
  MTT: −1.056
[3]; [10]
  cyt c: 0.142
[4]; [10]
  mitoOX: 0.065
[5]; [10]
  ROS: 0.225
[6]; [10]
  nucOX: −0.063
[7]; [10]
  Viability: −0.225
[8]; [10]
  ΔΨm: −0.389

## beta-escin
[1]; Conc 20 μM
  GE-HTS (composite Z-score): −0.914
[2]; Conc 20 μM
  MTT (composite Z-score): −5.088
[3]; Conc 20 μM
  cyt c (composite Z-score): −5.117
[4]; Conc 20 μM
  mitoOX (composite Z-score): −0.745
[5]; Conc 20 μM
  ROS (composite Z-score): −3.107
[6]; Conc 20 μM
  nucOX (composite Z-score): −0.883
[7]; Conc 20 μM
  Viability (composite Z-score): −5.049
[8]; Conc 20 μM
  ΔΨm (composite Z-score): −3.416

## COc1ccc(C(=O)c2ccc(O)cc2)c(O)c1O [2,3,4′-trihydroxy-4-methoxybenzophenone]
[1]; [11]
  GE-HTS: −1.557
[2]; [11]
  MTT: −0.475
[3]; [11]
  cyt c: 0.378
[4]; [11]
  mitoOX: −1.476
[5]; [11]
  ROS: −0.472
[6]; [11]
  nucOX: −1.472
[7]; [11]
  Viability: −0.403
[8]; [11]
  ΔΨm: −1.356

## C=C1c2cccc(O)c2C(=O)C2=C(O)[C@]3(O)C(=O)C(C(N)=O)=C(O)[C@@H](N(C)C)[C@@H]3[C@@H](O)[C@H]12 [methacycline, reference compound]
[1]; [12]
  GE-HTS: −0.340
[2]; [12]
  MTT: −1.744
[3]
  cyt c: 0.020
[3]; [12]
  cyt c: 0.723
[4]; [12]
  mitoOX: 0.258
[5]; [12]
  ROS: 1.083
[6]; [12]
  nucOX: −0.600
[7]; [12]
  Viability: −1.645
[8]; [12]
  ΔΨm: −1.616

## CC(=O)N[C@H]1[C@H]([C@@H](O)[C@@H](O)CO)O[C@@](O)(C(=O)O)C[C@@H]1O [N-acetylneuramic acid]
[1]; [12]
  GE-HTS: 1.061
[2]; [12]
  MTT: −0.118
[3]; [12]
  cyt c: −0.254
[4]; [12]
  mitoOX: 0.813
[5]; [12]
  ROS: 0.063
[6]; [12]
  nucOX: 1.111
[7]; [12]
  Viability: 1.009
[8]; [12]
  ΔΨm: 0.053

## Oc1c(Br)cc(Br)c2cccnc12 [broxyquinoline]
[1]; [13]
  GE-HTS: −0.830
[2]; [13]
  MTT: −1.180
[3]; [13]
  cyt c: 0.410
[4]; [13]
  mitoOX: −0.157
[5]; [13]
  ROS: −1.081
[6]; [13]
  nucOX: −1.095
[7]; [13]
  Viability: −2.006
[8]; [13]
  ΔΨm: 1.701

## C[C@]12CCC(=O)C=C1C=C[C@@H]1[C@@H]2CC[C@@]2(C)[C@H]1CC[C@@]2(O)CCC(=O)O [canrenoic acid]
[1]; Conc 20 μM
  GE-HTS (composite Z-score): 0.072
[2]; Conc 20 μM
  MTT (composite Z-score): −0.973
[3]; Conc 20 μM
  cyt c (composite Z-score): 0.732
[4]; Conc 20 μM
  mitoOX (composite Z-score): −0.047
[5]; Conc 20 μM
  ROS (composite Z-score): 0.803
[6]; Conc 20 μM
  nucOX (composite Z-score): 0.154
[7]; Conc 20 μM
  Viability (composite Z-score): −0.004
[8]; Conc 20 μM
  ΔΨm (composite Z-score): −0.749

## CCC(C)C(=O)O[C@@H]1C[C@@]2(C)[C@H](c3ccoc3)OC(=O)CC23OC2(C)O[C@]14[C@]1(C)[C@@H](CC(=O)OC)C5(C)CC1(O)[C@](O)(C5OC(=O)C1(C)OC1C)[C@@H](OC(C)=O)[C@]34O2 (stereo partly shown) [utilin]
[1]; [10]
  GE-HTS: −0.939
[2]; [10]
  MTT: −1.571
[3]; [10]
  cyt c: −0.038
[4]; [10]
  mitoOX: −0.975
[5]; [10]
  ROS: 0.482
[6]; [10]
  nucOX: −0.861
[7]; [10]
  Viability: 1.131
[8]; [10]
  ΔΨm: −0.122

## NS(=O)(=O)c1cc(C2(O)NC(=O)c3ccccc32)ccc1Cl (stereo not shown) [chlorthalidone]
[1]
  GE-HTS: −0.236
[1]; [13]
  GE-HTS: 0.793
[2]
  MTT: −1.736
[2]; [13]
  MTT: −1.134
[3]
  cyt c: 0.531
[3]; [13]
  cyt c: 0.066
[4]
  mitoOX: −0.641
[4]; [13]
  mitoOX: 0.877
[5]
  ROS: 1.047
[5]; [13]
  ROS: 1.655
[6]
  nucOX: −0.009
[6]; [13]
  nucOX: 0.646
[7]
  Viability: 0.081
[7]; [13]
  Viability: 0.308
[8]
  ΔΨm: −0.750
[8]; [13]
  ΔΨm: −0.257

## C=C1CC[C@@H]2[C@](C)(CO)[C@H](O)CC[C@@]2(C)[C@@H]1C/C=C1/C(=O)OC[C@H]1O [andrographolide]
[1]; [11]
  GE-HTS: −1.323
[2]; [11]
  MTT: −0.901
[3]; [11]
  cyt c: −0.044
[4]; [11]
  mitoOX: −2.361
[5]; [11]
  ROS: −1.813
[6]; [11]
  nucOX: −0.698
[7]; [11]
  Viability: −0.686
[8]; [11]
  ΔΨm: −0.165

## COc1cc(OC)c2c(OC)c(-c3ccc4c(c3)OCO4)c(=O)oc2c1 [derrusnin]
[1]; [11]
  GE-HTS: 0.039
[2]; [11]
  MTT: −1.630
[3]; [11]
  cyt c: 0.511
[4]; [11]
  mitoOX: 0.417
[5]; [11]
  ROS: 4.060
[6]; [11]
  nucOX: −0.129
[7]; [11]
  Viability: 1.067
[8]; [11]
  ΔΨm: 0.025

From patent US20090143279A1 (priority 2007, published 2009)
